Data on one molecule can be found in patent US20210253518A1, “KINASE INHIBITOR” (NISSAN CHEMICAL CORPORATION, priority 2018, published 2021).

The test system of test [1] is YAP (phospho-S127 and total). The test can be described thus: YAP phosphorylation inhibitory action in SKOV3 cells (HTRF, YAP-total kit / YAP phospho-S127 kit). Format: cell-based, human. The note with it: 10 μM, 1 hr, Non-treatment as 100%. The method, then: Human ovarian cancer cell line SKOV3 (manufactured by DS Pharma Biomedical Co., Ltd) was precultured (single layer culture) in a 15% FBS-containing McCoy's 5a medium (manufactured by Sigma Ltd. Aldrich). The above-mentioned cells in the logarithmic growth phase were washed with PBS, a 0.25% (w/v) trypsin-1 mmol/L ethylenediaminetetraacetic acid (EDTA) solution (manufactured by Fujifilm Wako Pure Chemical Corporation) was added, and adherent cells were detached by incubating at 37° C. for 3 min. The above-mentioned medium was added and the mixture was centrifuged and resuspended in the same medium.
According to the method of patent document (WO 2014/017513), a composition of 10% FBS-containing DMEM medium (Phenol-red free, manufactured by FUJIFILM Wako Pure Chemical Corporation) containing 0.015% (w/v) deacylated gellan gum (KELCOGEL CG-LA, manufactured by SANSHO Co., Ltd.) was prepared using FCeM-series Preparation Kit (manufactured by FUJIFILM Wako Pure Chemical Corporation). Then, various cells prepared above were suspended in the above-mentioned medium composition (3D conditions) added with deacylated gellan gum or a medium without the addition (2D conditions), and seeded on a 50 μL/well (manufactured by Corning Incorporated, 96 well flat bottom plate, #3585, 2D conditions) or 25 μL/well (manufactured by Corning Incorporated, 96 well low adhesion flat bottom plate, #3474) at 100000 cells/well. The plate was allowed to stand at 37° C. in a 5% CO2 incubator, and the compound of the present invention diluted with the medium at 2 or 6 times the final concentration, DMSO, or the medium alone was added to the plate 3 hr after the seeding at 50 μL/well (2D conditions) or 5 μL/well (3D conditions) to make the final concentration of each compound 10 μM. After culture at 37° C. in a 5% CO2 incubator for 1 hr, the supernatant was aspirated, supplemented Lysis buffer (1-fold concentration, manufactured by Cisbio, YAP-total kit or YAP phospho-S127 kit) (50 μL) was added under 2D conditions, and supplemented Lysys buffer (4-fold concentration) (10 μL) was added to the culture supernatant under 3D conditions, and the mixture was stirred by a plate shaker for 30 min. Thereafter, the plate was centrifuged, 16 μL of the supernatant was transferred to a 384-well white plate (Corning, #4512), and each antibody solution (pYAP d2 antibody or Total-YAP d2 antibody, and pYAP Cryptate antibody or Total-YAP Cryptate antibody) included in the kit was added at 4 μL/well in total, and the mixture was allowed to stand at room temperature overnight. As a blank control, pYAP Cryptate antibody or Total-YAP Cryptate antibody alone was added to cells free of stimulation with compound and the mixture was treated in the same manner (Non-treatment). The next day, the wavelengths at 665 nm and 615 nm were measured in the HTRF mode of EnVision (manufactured by PerkinElmer).
The obtained signal was calculated as follows. Ratio=signal (665 nm)/signal (615 nm)×10000, ΔR=Signal(Ratio)−Background fluorescence, and the relative value with respect to ΔR of the compound non-addition group (Non-treatment) as 100% was calculated, and the phosphorylated YAP amount or total YAP amount by each compound was evaluated.
In general terms: Time-resolved FRET reads energy transfer from a long-lived donor to a nearby acceptor.

Another test addresses T1, LATS2 (Homo sapiens, UniProt Q9NRM7).
T1 construct: purchased Carna Biosciences
T1 sequence (Q9NRM7 553-1088 limits assumed): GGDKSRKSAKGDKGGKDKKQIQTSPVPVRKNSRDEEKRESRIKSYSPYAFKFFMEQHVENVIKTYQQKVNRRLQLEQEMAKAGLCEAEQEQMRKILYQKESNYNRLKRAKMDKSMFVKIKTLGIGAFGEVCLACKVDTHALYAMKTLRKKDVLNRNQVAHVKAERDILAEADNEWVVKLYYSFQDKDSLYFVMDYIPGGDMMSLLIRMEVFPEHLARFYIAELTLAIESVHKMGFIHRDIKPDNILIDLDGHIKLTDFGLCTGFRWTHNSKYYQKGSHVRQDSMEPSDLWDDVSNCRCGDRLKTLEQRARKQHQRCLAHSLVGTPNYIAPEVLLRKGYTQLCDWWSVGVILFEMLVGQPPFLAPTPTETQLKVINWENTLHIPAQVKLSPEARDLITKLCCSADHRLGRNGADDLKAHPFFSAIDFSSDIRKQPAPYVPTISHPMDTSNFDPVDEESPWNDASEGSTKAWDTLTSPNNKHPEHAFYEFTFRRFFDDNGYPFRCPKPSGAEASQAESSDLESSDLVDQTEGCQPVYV
The test can be described thus: Kinase Assay method (Fluorospark Kinase/ADP Multi-Assay Kit). It counts as biochemical. The method, then:
(§1) For compound k-1:B-1 (racemate), GA-002A, GA-002B, GA-005A and GA-005B, inhibitory activity evaluation (calculation of IC50) was performed on LATS1 and LATS2 (manufactured by Carna Biosciences). The activity was measured using the Kinase Assay method described below. The compounds were added such that the test concentration of k-1:B-1 (racemate), GA-002A, GA-002B, GA-005A and GA-005B was in 8 steps (10 μM, 1 μM, 100 nM, […], 10 nM, 3 nM, 1 nM, 0.3 nM) from the final concentration of 10 μM to 0.3 nM.
(§2) As the analysis method of the data, the mean signal of the control well containing reaction components other than the evaluation compound was set to 0% inhibition, the mean signal without enzyme addition was set to 100% inhibition, and the inhibition rate was calculated from the mean signal of 2 wells of each test substance test. IC50 value was calculated using EXSUS (version 7.1.6, manufactured by CAC EXICARE Corporation).
(§3) 2 μL of a compound of the present invention solution at 2.5-fold concentration, 1 μL of substrate at 5-fold concentration (SGKtide: NH2—CKKRNRRLSVA-COOH, manufactured by SignalChem), ATP (manufactured by Sigma-Aldrich), MgCl2 (manufactured by FUJIFILM Wako Pure Chemical Corporation) solution (final concentration 10 μM, 400 μM or 5 mM), and 2 μL of kinase solution at 2.5-fold concentration (final concentration of LATS1 or LATS2 5 μg/mL), each prepared with assay buffer (20 mM HEPES, 0.01% Triton X-100, 2 mM DTT, pH 7.5), were mixed in the wells of a polypropylene 384-well plate (manufactured by Greiner Bio-One, #784900) and reacted at room temperature for 5 hr. Successively, 5 μL detection solution (Fluorospark (registered trade mark)Kinase/ADP Multi-Assay Kit; manufactured by FUJIFILM Wako Pure Chemical Corporation) was added, and the mixture was reacted at room temperature 30 min. Successively, 5 μL of a reaction quenching liquid (Fluorospark (registered trade mark) Kinase/ADP Multi-Assay Kit; manufactured by FUJIFILM Wako Pure Chemical Corporation) was added to discontinue the reaction. Thereafter, the ADP concentration of the reaction solution was quantified by EnSpire (manufactured by PerkinElmer) to detect the kinase reaction.

A further test deals with T2, LATS1 (Homo sapiens, UniProt O95835).
T2 construct: purchased Carna Biosciences
T2 sequence (O95835 589-1130 limits assumed): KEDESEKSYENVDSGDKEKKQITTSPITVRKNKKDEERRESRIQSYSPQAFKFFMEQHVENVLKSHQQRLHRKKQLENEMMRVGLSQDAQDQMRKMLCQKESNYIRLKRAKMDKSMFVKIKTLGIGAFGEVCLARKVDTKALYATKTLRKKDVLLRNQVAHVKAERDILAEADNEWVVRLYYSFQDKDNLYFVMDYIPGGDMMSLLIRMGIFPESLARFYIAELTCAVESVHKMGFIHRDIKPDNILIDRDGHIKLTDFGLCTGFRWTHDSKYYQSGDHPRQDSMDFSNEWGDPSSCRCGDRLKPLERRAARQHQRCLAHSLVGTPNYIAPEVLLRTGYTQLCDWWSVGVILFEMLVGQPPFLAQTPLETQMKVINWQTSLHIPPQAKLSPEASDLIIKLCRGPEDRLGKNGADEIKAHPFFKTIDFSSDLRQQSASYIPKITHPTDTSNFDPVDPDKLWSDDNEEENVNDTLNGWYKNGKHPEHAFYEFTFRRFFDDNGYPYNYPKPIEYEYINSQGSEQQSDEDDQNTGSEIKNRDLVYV
Described as above. It counts as biochemical. How it is done:
as §1, §2, §3

Setting [2] is: Kinase Assay method, 8 steps 10 μM to 0.3 nM.

SMILES strings stand for the structures.

As usually defined, the IC50 is the point on the concentration scale where inhibition reaches its midpoint. In the case of `CC/C(=N\NC(=O)[C@@H](C)Nc1cccc(O)c1)c1ccc(O)c(C)c1O` [GA-005A], the “phosphorylated YAP (%)” value in test [1] (2D condition) and in test [1] (3D condition) was 10% in each case. The “total YAP (%)” value is 91% in test [1] (2D condition) and 107% in test [1] (3D condition). Also, the inhibition at 0.1 µM at LATS2 (100 nM, read-out: LARS2 inhibitory rate (%)) was 99%; at LATS1 (100 nM, read-out: LARS1 inhibitory rate (%)), 96%. The inhibition at 1 µM is 100% on LATS2 (1000 nM, read-out: LARS2 inhibitory rate (%)) and 97% at LATS1 (1000 nM, read-out: LARS1 inhibitory rate (%)). The IC50 is 7.39 nM at LATS2 (setting [2]) and 4.79 nM against LATS1 (setting [2]).
